Assay results reported in patent publication US11779597B2, “Method of treating Parkinson's and other neurodegenerative diseases” (Vector Vitale IP LLC, priority 2019, dated 2023).
Blank lines part the entries; values can stand above or below the molecule they belong to.

Assays:
normal human fibroblasts = assay: Metabolic activity of cells (MTT assay); type: cell-based; details: 72 hours, control = 100% of living cells
Description: In vitro assessment of the effects of E2+^85Rbe on metabolic activity of normal human fibroblasts (MTT assay).
Proliferative and metabolic activity of cells was determined by the colorimetric method.
The metabolic activity of the cells (i.e., the number of living cells) was assessed by MTT staining.
24 hours after the last reagent, the cells were seeded at a concentration of 1×10^4 cells/well in wells of a 96-well plate in complete DMEM nutrient medium with 10% FBS and […]. The cells were cultured in a humidified atmosphere at 5% CO2 and 37° C. for 24 hours. After 24 hours, various doses of experimental substances were added to the respective wells. The cells were incubated at 37° C. and 5% CO2 for an additional 72 hours.
Upon completion of the incubation with the preparations, the proliferative and metabolic activity of the cells in the experiment was evaluated by the colorimetric method by staining MTT cells:
10 μl of the MTT solution (5 mg/ml of the dye in phosphate-buffered saline) was added to each well of the plate; the plate was incubated in a CO2 incubator at 37° C. for 3 hours. After that, the medium was removed from the wells, and the formed tetraformazan crystals were dissolved in 100 μl of dimethylsulfoxide.
When MTT was used, the results were evaluated using a multi-well spectrophotometer at an excitation wavelength of 540 nm. The percentage of viable cells was calculated by the formula: IR=(A 540(experiment)/A540(control))×100%.

[1] = system: human T-lymphocytes (CD3+); details: cited from earlier work
[2] = according to the published data

Metabolic activity of cells, % (normal human fibroblasts; 2.5 μg/ml): 128.2 ± 8.3%
Metabolic activity of cells, % (normal human fibroblasts; 5 μg/ml): 103.4 ± 9.3%
Metabolic activity of cells, % (normal human fibroblasts; 10 μg/ml): 104.6 ± 14.2%
Metabolic activity of cells, % (normal human fibroblasts; 20 μg/ml): 96.8 ± 9.8%
Metabolic activity of cells, % (normal human fibroblasts; 38 μg/ml): 98.8 ± 7.1%
Metabolic activity of cells, % (normal human fibroblasts; 75 μg/ml): 97.7 ± 7.5%
Metabolic activity of cells, % (normal human fibroblasts; 150 μg/ml): 99.3 ± 3.2%
Compound: Cc1ccc(S(=O)(=O)[N-]c2ccccc2NC(=O)c2ccccc2)cc1.[Rb+] [E2+Rb reference drug]

Compound: [Cl-].[Rb+] [rubidium chloride]
proliferation of both resting and activated lymphocytes [1, 2]: inhibitory effect

Compound: [Cl-].[Cl-].[Zn+2] [zinc chloride]
proliferation of unstimulated T-cells [1, 2]: has no effect
costimulatory effect on T-cell proliferation ([1]; published data): costimulatory effects
